Source: patent US10464941B2, “Therapeutic compounds” (REGENTS OF THE UNIVERSITY OF MINNESOTA, priority 2015, dated 2019)

Key:
[1] = tested on: WDR neuron; test: Extracellular recordings from dorsal horn neurons, von Frey stimulation; format: in vivo, mice; conditions: hind paw, 5 sec, compared with control and vehicle
Method: Mice were anesthetized with isoflurane while maintaining core temperature at 37° C. A laminectomy exposed the lumbar spinal cord then mice were secured in a spinal frame. Extracellular recordings from dorsal horn neurons with receptive fields located on the plantar surface of the hind paw were obtained using glass microelectrodes lowered into the spinal cord.
Receptive fields (RFs) of dorsal horn neurons were identified by stroking the skin and applying mild pressure. Neurons were classified functionally as low threshold (LT), wide dynamic range (WDR) and high threshold (HT) using mechanical stimulation of graded intensities. RF areas were mapped using von Frey filaments. The discharge rate of spontaneous activity was recorded for 3 minutes. Mechanical response thresholds were determined and an increasing series of von Frey filaments were applied, each for 5 sec. Action potentials and the time of stimulus application were stored on a computer. Comparisons of discharge rates were made between vehicle and MCC22.

[2] = tested on: LPS-pretreated mice; test: Effect of minocycline on MCC22 antinociception in LPS-pretreated mice (tail flick); format: in vivo; conditions: for MPE after minocycline: MCC22 1 pmol/mouse i.t.
Method: Effect of Minocycline in Mice Pretreated by LPS and Blockage of Antinociception of MCC22.
Three separate groups of mice (n=8) were pretreated with 1 mg/kg of LPS (i.p.). At 24 hours the baseline antinociception was measured using the tail flick assay to calculate % MPE. […] […] The dose used for MCC22 is a hundred times the ED50 dose of LPS pretreated mice with MCC22.

Compound: Cc1ccc(N(CCCN2CCC(Cc3ccc(C(N)=O)cc3)CC2)C(=O)C2CCN(C(=O)COCC(=O)NCCCCCCCCCCNC(=O)COCC(=O)N[C@H]3CC[C@@]4(O)C5Cc6ccc(O)c7c6[C@@]4(CCN5C)[C@H]3O7)CC2)cc1Cl [Compound 3e, N-(3-(4-(4-carbamoylbenzyl)piperidin-1-yl)propyl)-N-(3-chloro-4-methylphenyl)-1-(22-(((4aS,7S,7aR,12bS)-4a,9-dihydroxy-3-methyl-2,3,4,4a,5,6,7,7a-octahydro-1H-4,12-methanobenzofuro[3,2-e]isoquinolin-7-yl)amino)-5,18,22-trioxo-3,20-dioxa-6,17-diazadocosan-1-oyl)piperidine-4-carboxamide]
- responses of WDR neuron evoked by 1.0 g (9.3 mN) von Frey filament [1]: significantly reduced responses
- MPE after minocycline ([2]; 60 min after minocycline 45 mg/kg i.p., LPS pretreated): 100%
- MPE after minocycline ([2]; 120 min after minocycline 45 mg/kg i.p., LPS pretreated): 52.04%±17.04
- MPE after minocycline ([2]; 240 min after minocycline 45 mg/kg i.p., LPS pretreated): 10.7%±5.17
- % MPE ([2]; LPS 24 hours, minocycline 4 hours, 1000 pmol/mouse MCC22): 49.35±14.38 % MPE
- FIG. 4 LPS/minocycline/MCC22 (value with interval) ([2]; LPS pretreated, minocycline 45 mg/kg i.p. prior to testing): 1016 (54-1558)
